Experimental data reported in ChEMBL document CHEMBL5614451, “Structure-Activity Relationship of Oxacyclo- and Triazolo-Containing Respiratory Syncytial Virus Polymerase Inhibitors” (ACS Med Chem Lett, 2024).

Legend:
[1] = Inhibition of RSV RdRp L/P measured after 120 mins by SPA; parameters: species or system Respiratory syncytial virus
[2] = Cytotoxicity against human HeLa cells incubated for 3 days by ATPlite analysis; type: toxicity, cell-based; details: time 3 day
[3] = tested on: Respiratory syncytial virus; test: Antiviral activity against RSV A2 expressing e-GFP infected in human HeLa cells incubated for 3 days by […]; type: functional, organism-based; details: 72 h
[4] = Intrinsic clearance in human liver microsome at 1 uM preincubated for 5 mins followed by NADPH addition measured upto 60 mins by LC-MS/MS analysis; type: ADME; details: liver microsomes, time 65 min, read-out: CLH
[5] = Intrinsic clearance in rat liver microsome at 1 uM preincubated for 5 mins followed by NADPH addition measured upto 60 mins by LC-MS/MS analysis; type: ADME; details: liver microsomes, time 65 min, read-out: CLH
[6] = Inhibition of RSV RdRp L/P; parameters: species or system Respiratory syncytial virus
[7] = tested on: Respiratory syncytial virus; test: Antiviral activity against RSV; type: functional, organism-based; details: human respiratory syncytial virus

Compound	IC50 [1]	EC50 [3]	microsomal CLint at 1 µM [4]	microsomal CLint at 1 µM [5]	IC50 [6]	EC50 [7]	CC50 at 72 h [2]
COc1cc(C(=O)NCC2(c3cc(C(C)(C)O)c(F)c(-c4ccc(F)cc4)n3)OCCC2O)cc2cc(C)nnc12 (stereo unspecified)	0.0019 µM	0.00013 µM	18.4 µL/min/mg				> 5 µM
COc1cc(-c2cn(CC(=O)c3cc(C(C)(C)O)c(F)c(-c4ccc(F)cc4)n3)nn2)cc2cccnc12	0.077 µM	0.2 µM	14.3 µL/min/mg	10.8 µL/min/mg			> 50 µM
COc1cc(C(=O)NCC2(c3cc(C(C)(C)O)c(F)c(-c4ccc(F)cc4)n3)OCCC23CC3)cc2cc(C)nnc12 (stereo unspecified)	0.00055 µM	0.00041 µM	> 347 µL/min/mg				> 5 µM
COc1cc(C(=O)NCC(=O)c2cc(C(C)(C)O)c(F)c(-c3ccc(F)cc3)n2)cc2cc(C)nnc12	0.0034 µM	0.0065 µM	9.5 µL/min/mg				31 µM
COc1cc(C(=O)NCC2(c3cc(C(C)(C)O)c(F)c(-c4ccc(F)cc4)n3)OCCC2=O)cc2cc(C)nnc12 (stereo unspecified)	0.0001 µM	0.00022 µM	110 µL/min/mg				> 5 µM
COc1cc(-c2cn(C[C@](O)(c3cc(C(C)(C)O)c(F)c(-c4ccc(F)cc4)n3)C(F)(F)F)nn2)cc2cccnc12	0.016 µM	0.074 µM	< 7.7 µL/min/mg	< 7.7 µL/min/mg			13 µM
COc1cc(C(=O)NCC2(c3cc(C(C)(C)O)c(F)c(-c4ccc(F)cc4)n3)CCCO2)cc2cc(C)nnc12 (stereo unspecified)	0.0008 µM	0.00073 µM	> 20 µL/min/mg				18 µM
COc1cc(-c2cn(CC3(c4cc(C(C)(C)O)c(F)c(-c5ccc(F)cc5)n4)CCO3)nn2)cc2cccnc12 (stereo unspecified)	0.0041 µM	0.01 µM	54.2 µL/min/mg	42.7 µL/min/mg			23.6 µM
COc1cc(C(=O)NCC(O)(c2cc(C(C)(C)O)c(F)c(-c3ccc(F)cc3)n2)C(F)(F)F)cc2cccnc12 (stereo unspecified)	0.00063 µM	0.011 µM	12.1 µL/min/mg	168 µL/min/mg			16 µM
COc1cc(C(=O)NC[C@](O)(c2cc(C(C)(C)O)c(F)c(-c3ccc(F)cc3)n2)C(F)(F)F)cc2cc(C)nnc12					0.00029 µM	0.00038 µM	

More lines, in order of falling IC50 [1], values ahead:

IC50 [1]	EC50 [3]	microsomal CLint at 1 µM [4]	microsomal CLint at 1 µM [5]	IC50 [6]	EC50 [7]	Compound	CC50 at 72 h [2]
0.044 µM	0.17 µM	> 347 µL/min/mg				COc1cc(C(=O)NCC2(c3cc(C(C)(C)O)c(F)c(-c4ccc(F)cc4)n3)CCCCO2)cc2cc(C)nnc12 (stereo unspecified)	> 25 µM
0.022 µM	0.108 µM	> 347 µL/min/mg				COc1cc(-c2cn(CC3(c4cc(C(C)(C)O)c(F)c(-c5ccc(F)cc5)n4)CCCO3)nn2)cc2cccnc12 (stereo unspecified)	> 5 µM
0.0025 µM	0.018 µM	126 µL/min/mg				COc1cc(C(=O)NCC2(c3cc(C(C)(C)O)c(F)c(-c4ccc(F)cc4)n3)CC(=O)CO2)cc2cc(C)nnc12 (stereo unspecified)	> 5 µM
0.0019 µM	0.017 µM	14.6 µL/min/mg				COc1cc(C(=O)NCC2(c3cc(C(C)(C)O)c(F)c(-c4ccc(F)cc4)n3)CC(O)CO2)cc2cc(C)nnc12 (stereo unspecified)	> 5 µM
0.00078 µM	0.0023 µM	117 µL/min/mg				COc1cc(C(=O)NCC2(c3cc(C(C)(C)O)c(F)c(-c4ccc(F)cc4)n3)CC(F)(F)CO2)cc2cc(C)nnc12 (stereo unspecified)	> 5 µM
0.00025 µM	0.0012 µM	13.3 µL/min/mg				COc1cc(C(=O)NCC2(c3cc(C(C)(C)O)c(F)c(-c4ccc(F)cc4)n3)OCCO2)cc2cc(C)nnc12	> 50 µM
